Biological target: T1, BTK (Homo sapiens, UniProt Q06187)
T1 construct: endogenous in cells; host or cells: TMD-8 cells
Test: BTK degradation in TMD-8 cells, HTRF assay after 6 h treatment
Type: cell-based
Conditions: for DC50: IC50 (DC50) of BTK degradation; for Dmax: TMD8, maximum percentage of inhibition (degradation)
Procedure: TMD-8 cells are treated with compounds diluted in 0.2% DMSO, dilution is done according to the following protocol: (1) make 500× stock solution in DMSO from 1 mM by 6-fold dilution, total 8 doses were included; (2) make 2× solution in cell culture medium by transferring 0.5 μl 500× stock solution into 125 μl medium; (3) 15 μl of 2× solution is added to cells and incubate for 6 h.
After 6 h treatment, add 10 μl 4×lysis buffer to each well; seal the plate and incubate 30 min at room temperature on a plate shaker; Once the cells are lysed, 16 μL of cell lysate are transferred to a PE 384-well HTRF detection plate; 4 μL of pre-mixed HTRF antibodies are added to each well; Cover the plate with a plate sealer, spin 1000 rpm for 1 min, Incubate overnight at room temperature; Read on BMG PheraStar with HTRF protocol (337 nm-665 nm-620 nm).
The IC50 (DC50) value of a compound can be obtained by fitting the following equation
Y=Bottom+(TOP−Bottom)/(1+((IC50/X)^hillslope))
Wherein, X and Y are known values, and IC50, Hillslope, Top and Bottom are the parameters obtained by fitting with software. Y is the inhibition percentage (calculated from the equation), X is the concentration of the compound; IC50 is the concentration of the compound when the 50% inhibition is reached. The smaller the IC50 value is, the stronger the inhibitory ability of the compound is. Vice versa, the higher the IC50 value is, the weaker the ability the inhibitory ability of the compound is; Hillslope represents the slope of the fitted curve, generally around 1*; Bottom represents the minimum value of the curve obtained by data fitting, which is generally 0%±20%; Top represents the maximum value of the curve obtained by data fitting, which is generally 100%±20%. The experimental data were fitted by calculating and analyzing with Dotmatics data analysis software.

T1 sequence (Q06187 whole entry): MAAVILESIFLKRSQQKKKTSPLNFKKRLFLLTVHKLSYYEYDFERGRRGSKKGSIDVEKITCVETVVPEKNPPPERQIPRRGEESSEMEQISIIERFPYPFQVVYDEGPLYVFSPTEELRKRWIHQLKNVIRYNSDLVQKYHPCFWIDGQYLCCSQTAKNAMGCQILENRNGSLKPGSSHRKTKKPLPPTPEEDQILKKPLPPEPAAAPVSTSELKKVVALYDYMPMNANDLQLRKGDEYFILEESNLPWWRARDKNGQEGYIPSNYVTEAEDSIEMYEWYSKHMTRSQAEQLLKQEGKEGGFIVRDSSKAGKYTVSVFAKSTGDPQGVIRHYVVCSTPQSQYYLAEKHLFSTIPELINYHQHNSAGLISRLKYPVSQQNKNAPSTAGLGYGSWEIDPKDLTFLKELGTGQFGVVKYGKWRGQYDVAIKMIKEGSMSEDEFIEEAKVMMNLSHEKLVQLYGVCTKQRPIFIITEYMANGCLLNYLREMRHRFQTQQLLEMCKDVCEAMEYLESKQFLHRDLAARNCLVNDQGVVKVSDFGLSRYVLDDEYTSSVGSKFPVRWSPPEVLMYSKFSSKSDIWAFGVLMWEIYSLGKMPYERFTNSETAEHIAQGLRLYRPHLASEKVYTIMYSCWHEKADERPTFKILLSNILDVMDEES

Cc1cc(-c2n[nH]c3ncc(-c4ccc(C5CCN(CCc6ccc(C7CCC(=O)NC7=O)c7c6CCCC7)CC5)cc4)cc23)ccc1CNC(=O)c1nc(C(C)(C)C)no1 (stereo not shown) [Example 26, 3-(tert-butyl)-N-(4-(5-(4-(1-(2-(4-(2,6-dioxopiperidin-3-yl)-5,6,7,8-tetrahydronaphthalen-1-yl)ethyl)piperidin-4-yl)phenyl)-1H-pyrazolo[3,4-b]pyridin-3-yl)-2-methylbenzyl)-1,2,4-oxadiazole-5-carboxamide]
DC50: 28.9 nM | Dmax: 94.3%

Cc1cc(-c2n[nH]c3ncc(-c4ccc(C5CCN(CCCOc6ccc(C7CCC(=O)NC7=O)c(C)c6)CC5)cc4)cc23)ccc1CNC(=O)c1nc(C(C)(C)C)no1 (stereo not shown) [Example 27, 3-(tert-butyl)-N-(4-(5-(4-(1-(3-(4-(2,6-dioxopiperidin-3-yl)-3-methylphenoxy)propyl)piperidin-4-yl)phenyl)-1H-pyrazolo[3,4-b]pyridin-3-yl)-2-methylbenzyl)-1,2,4-oxadiazole-5-carboxamide]
DC50: 9.25 nM | Dmax: 95.3%

COc1cc(N2CCC(CCN3CCC(c4ccc(-c5cnc6[nH]nc(-c7ccc(CNC(=O)c8nc(C(C)(C)C)no8)c(C)c7)c6c5)cc4)CC3)CC2)ccc1N1CCC(=O)NC1=O [Example 28, 3-(tert-butyl)-N-(4-(5-(4-(1-(2-(1-(4-(2,4-dioxotetrahydropyrimidin-1(2H)-yl)-3-methoxyphenyl)piperidin-4-yl)ethyl)piperidin-4-yl)phenyl)-1H-pyrazolo[3,4-b]pyridin-3-yl)-2-methylbenzyl)-1,2,4-oxadiazole-5-carboxamide]
DC50: 2.54 nM | Dmax: 97.1%

Cc1cc(-c2n[nH]c3ncc(-c4ccc(C5CCN(CCc6ccc(OC7CCC(=O)NC7=O)cc6)CC5)cc4)cc23)ccc1CNC(=O)c1nc(C(C)(C)C)no1 (stereo not shown) [Example 29, 3-(tert-butyl)-N-(4-(5-(4-(1-(4-((2,6-dioxopiperidin-3-yl)oxy)phenethyl)piperidin-4-yl)phenyl)-1H-pyrazolo[3,4-b]pyridin-3-yl)-2-methylbenzyl)-1,2,4-oxadiazole-5-carboxamide]
DC50: 3.2 nM | Dmax: 95.4%

COc1cc(OCCCN2CCC(c3ccc(-c4cnc5[nH]nc(-c6ccc(CNC(=O)c7nc(C(C)(C)C)no7)c(C)c6)c5c4)cc3)CC2)ccc1C1CCC(=O)NC1=O (stereo not shown) [Example 30, 3-(tert-butyl)-N-(4-(5-(4-(1-(3-(4-(2,6-dioxopiperidin-3-yl)-3-methoxyphenoxy)propyl)piperidin-4-yl)phenyl)-1H-pyrazolo[3,4-b]pyridin-3-yl)-2-methylbenzyl)-1,2,4-oxadiazole-5-carboxamide]
DC50: 8.19 nM | Dmax: 97.5%

Cc1cc(-c2n[nH]c3ncc(-c4ccc(N5CCN(CC6CCN(c7ccc(N8CCC(=O)NC8=O)cc7)CC6)CC5)cc4)cc23)ccc1CNC(=O)c1cn(C(C)(C)C)nn1 [Example 31, 1-(tert-butyl)-N-(4-(5-(4-(4-((1-(4-(2,4-dioxotetrahydropyrimidin-1(2H)-yl)phenyl)piperidin-4-yl)methyl)piperazin-1-yl)phenyl)-1H-pyrazolo[3,4-b]pyridin-3-yl)-2-methylbenzyl)-1H-1,2,3-triazole-4-carboxamide]
DC50: 21.8 nM | Dmax: 97.4%

Cc1cc(-c2n[nH]c3ncc(-c4ccc(N5CCN(CC6CCN(c7ccc(N8CCC(=O)NC8=O)cc7)CC6)CC5)cc4)cc23)ccc1CNC(=O)c1cnn(C(C)(C)C)c1 [Example 32, 1-(tert-butyl)-N-(4-(5-(4-(4-((1-(4-(2,4-dioxotetrahydropyrimidin-1(2H)-yl)phenyl)piperidin-4-yl)methyl)piperazin-1-yl)phenyl)-1H-pyrazolo[3,4-b]pyridin-3-yl)-2-methylbenzyl)-1H-pyrazole-4-carboxamide]
DC50: 2.55 nM | Dmax: 93.6%

Cc1cc(-c2n[nH]c3ncc(-c4ccc(N5CCN(CCc6ccc(C7CCC(=O)NC7=O)cc6)CC5)cc4)cc23)ccc1[C@@H](C)NC(=O)c1nc(C(C)(C)C)no1 (stereo partly drawn) [Example 33, 3-(tert-butyl)-N-((1R)-1-(4-(5-(4-(4-(4-(2,6-dioxopiperidin-3-yl)phenethyl)piperazin-1-yl)phenyl)-1H-pyrazolo[3,4-b]pyridin-3-yl)-2-methylphenyl)ethyl)-1,2,4-oxadiazole-5-carboxamide]
DC50: 3.85 nM | Dmax: 99.4%

Cc1cc(-c2n[nH]c3ncc(-c4ccc(N5CCN(CCc6ccc(C7CCC(=O)NC7=O)c(F)c6)CC5)cc4)cc23)ccc1[C@@H](C)NC(=O)c1nc(C(C)(C)C)no1 (stereo partly drawn) [Example 34, 3-(tert-butyl)-N-((1R)-1-(4-(5-(4-(4-(4-(2,6-dioxopiperidin-3-yl)-3-fluorophenethyl)piperazin-1-yl)phenyl)-1H-pyrazolo[3,4-b]pyridin-3-yl)-2-methylphenyl)ethyl)-1,2,4-oxadiazole-5-carboxamide]
DC50: 3.39 nM | Dmax: 95.6%

Cc1cc(-c2n[nH]c3ncc(-c4ccc(N5CCN(CCc6ccc(C7CCC(=O)NC7=O)cc6)CC5)cc4)cc23)ccc1[C@@H](C)NC(=O)c1noc(C(C)(C)C)n1 (stereo partly drawn) [Example 35, 5-(tert-butyl)-N-((1R)-1-(4-(5-(4-(4-(4-(2,6-dioxopiperidin-3-yl)phenethyl)piperazin-1-yl)phenyl)-1H-pyrazolo[3,4-b]pyridin-3-yl)-2-methylphenyl)ethyl)-1,2,4-oxadiazole-3-carboxamide]
DC50: 1.9 nM | Dmax: 93%

Cc1cc(-c2n[nH]c3ncc(-c4ccc(N5CCN(CCc6ccc(C7CCC(=O)NC7=O)c(F)c6)CC5)cc4)cc23)ccc1[C@@H](C)NC(=O)c1noc(C(C)(C)C)n1 (stereo partly drawn) [Example 36, 5-(tert-butyl)-N-((1R)-1-(4-(5-(4-(4-(4-(2,6-dioxopiperidin-3-yl)-3-fluorophenethyl)piperazin-1-yl)phenyl)-1H-pyrazolo[3,4-b]pyridin-3-yl)-2-methylphenyl)ethyl)-1,2,4-oxadiazole-3-carboxamide]
DC50: 3 nM | Dmax: 98.3%

Cc1cc(-c2n[nH]c3ncc(-c4ccc(N5CCN(CC6CCN(c7ccc(N8CCC(=O)NC8=O)cc7)CC6)CC5)cc4)cc23)ccc1[C@@H](C)NC(=O)c1noc(C(C)(C)C)n1 [Example 37, (R)-5-(tert-butyl)-N-(1-(4-(5-(4-(4-((1-(4-(2,4-dioxotetrahydropyrimidin-1(2H)-yl)phenyl)piperidin-4-yl)methyl)piperazin-1-yl)phenyl)-1H-pyrazolo[3,4-b]pyridin-3-yl)-2-methylphenyl)ethyl)-1,2,4-oxadiazole-3-carboxamide]
DC50: 2.52 nM | Dmax: 93.4%

Cc1cc(-c2n[nH]c3ncc(-c4ccc(N5CCN(CC6CCN(c7ccc(N8CCC(=O)NC8=O)c(F)c7)CC6)CC5)cc4)cc23)ccc1[C@@H](C)NC(=O)c1noc(C(C)(C)C)n1 [Example 38, (R)-5-(tert-butyl)-N-(1-(4-(5-(4-(4-((1-(4-(2,4-dioxotetrahydropyrimidin-1(2H)-yl)-3-fluorophenyl)piperidin-4-yl)methyl)piperazin-1-yl)phenyl)-1H-pyrazolo[3,4-b]pyridin-3-yl)-2-methylphenyl)ethyl)-1,2,4-oxadiazole-3-carboxamide]
DC50: 3.2 nM

Cc1cc(-c2n[nH]c3ncc(-c4ccc(N5CCN(CC6CCN(c7ccc(N8CCC(=O)NC8=O)c(C)c7)CC6)CC5)cc4)cc23)ccc1[C@@H](C)NC(=O)c1noc(C(C)(C)C)n1 [Example 39, (R)-5-(tert-butyl)-N-(1-(4-(5-(4-(4-((1-(4-(2,4-dioxotetrahydropyrimidin-1(2H)-yl)-3-methylphenyl)piperidin-4-yl)methyl)piperazin-1-yl)phenyl)-1H-pyrazolo[3,4-b]pyridin-3-yl)-2-methylphenyl)ethyl)-1,2,4-oxadiazole-3-carboxamide]
DC50: 2.6 nM

Cc1cc(CCN2CCN(c3ccc(-c4cnc5[nH]nc(-c6ccc([C@@H](C)NC(=O)c7noc(C(C)(C)C)n7)c(C)c6)c5c4)cc3)CC2)ccc1C1CCC(=O)NC1=O (stereo partly drawn) [Example 40, 5-(tert-butyl)-N-((1R)-1-(4-(5-(4-(4-(4-(2,6-dioxopiperidin-3-yl)-3-methylphenethyl)piperazin-1-yl)phenyl)-1H-pyrazolo[3,4-b]pyridin-3-yl)-2-methylphenyl)ethyl)-1,2,4-oxadiazole-3-carboxamide]
DC50: 7.32 nM

Cc1cc(-c2n[nH]c3ncc(-c4ccc(N5CCN(CC6CCN(c7ccc(N8CCC(=O)NC8=O)cc7)CC6)CC5)cc4)cc23)ccc1CNC(=O)c1noc(C(C)(C)C(F)(F)F)n1 [Example 41, N-(4-(5-(4-(4-((1-(4-(2,4-dioxotetrahydropyrimidin-1(2H)-yl)phenyl)piperidin-4-yl)methyl)piperazin-1-yl)phenyl)-1H-pyrazolo[3,4-b]pyridin-3-yl)-2-methylbenzyl)-5-(1,1,1-trifluoro-2-methylpropan-2-yl)-1,2,4-oxadiazole-3-carboxamide]
DC50: 7.05 nM

— US20230322761A1, “DEGRADATION OF BRUTON'S TYROSINE KINASE (BTK) BY CONJUGATION OF BTK INHIBITORS WITH E3 LIGASE LIGAND AND METHODS OF USE” (BEIGENE, LTD., priority 2020, published 2023)
